# Experimental data reported in patent publication US7070940B2, “Method for determining the ability of a compound to modify the interaction between parkin and the p38 protein” (Aventis Pharma S.A., priority 2002, dated 2006).
# Tests used:
# interaction Parkin-p38 = test: Reverse two-hybrid screening assay in yeast (growth on 5-fluoroorotic acid); assay type: cell-based, Saccharomyces cerevisiae; settings: internal control; agar medium with 0.35 g/l 5FOA, 30° C., 48 h and/or 72 h
# Description: The Saccharomyces cerevisiae strain used for the screening can be the L40 strain used to clone the p38 protein. However, this strain must contain the URA3 reporter gene in place of the HIS3 reporter gene under the control of a promoter containing a sequence to which the LexA protein attaches to induce transcription. This strain may also contain a disruption in the erg6 gene and/or genes such as pdr5 or pdr11, to increase cell permeability to the compounds tested during the screening (WO96/10082).
# This strain is simultaneously transformed with the two plasmids encoding the p38 protein or parkin used in the previous two-hybrid test or else encoding homologous or truncated forms of these two proteins. The interaction between these proteins confers a Ura+phenotype on the doubly-transformed strain, by reconstituting a transcription factor capable of inducing transcription of the URA3 reporter gene. This Ura+ phenotype also makes it possible to use the sensitivity of the strain to 5-fluoorotic acid (5FOA) for reverse two-hybrid “positive” screening. […]
# 48 h and/or 72 h and they may be read by visual examination. […] The compounds which have made it possible to obtain such a response of strain growth restoration are identified as being positive and recorded in a database.
# [1] = system: COS7 cells overexpressing p38; test: p38 perinuclear inclusions (aggresomes) by immunocytochemistry in COS7 cells; assay type: cell-based; settings: 15 μg/ml overnight
# Protocol: The cells (COS7, 2.5′ 104 and SH-SY5Y cells, 8′ 104) were transfected with the plasmids indicated (pcDNA3-myc-p38, 0.5 ·g; or pcDNA3-myc-p38 and pcDNA3-HA-Parkin, 0.25 ·g of each), and treated or not treated with: epoxomicin (Affiniti, 1 μM), nocodazole (Sigma, 15 μg/ml), cytochalasin D (Sigma, 200 nM) overnight. Forty-eight hours after transfection, the cells were fixed and subjected to standard immunocytochemistry procedures. The polyclonal primary antibodies used were: anti-p38 (M. Mirande, 1:20 000), anti-Parkin (Asp5, 1:400), anti-proteasome 20S (Affiniti, 1:2500), anti-Hsp70 (Stressgen, 1:2500), anti-ubiquitin (Dako, 1:100) and anti-actin (Sigma, 1:100). The monoclonal primary antibodies were: anti ·a-tubulin (clone DM 1A, Sigma, 1:1000), antivimentin (DAKO, clone V9, 1:100) and anti-myc (clone 9E10, Santa Cruz, 1:400). The secondary antibodies were: anti-mouse IgGs conjugated to the fluorochrome Alexa Fluor 488 (Interchim, 1:200) and anti-rabbit IgGs conjugated to the fluorochrome CY3 (Jackson ImmunoResearch, 1:500). The cells were analysed by confocal microscopy.
# We analysed the nature and the composition of the p38 protein perinuclear inclusions formed when p38 is overexpressed in cells of the COS7 line. In particular, we wondered whether these inclusions could be of the aggresome type (Kopito et al., 2000). […]
Structure (SMILES),yeast strain growth in the presence of 5FOA (interaction Parkin-p38),effect on p38 perinuclear aggregates [1]
O=c1cnn([C@@H]2O[C@H](CO)[C@@H](O)[C@H]2O)c(=O)[nH]1 [6-azauridine],restores strain growth,–
COC(=O)Nc1nc2ccc(C(=O)c3cccs3)cc2[nH]1 [nocodazole],–,dispersion of the perinuclear aggregates
